Article PMC9697080 (International Journal of Molecular Sciences, 2022)
“And” between values parts separate entries of the source, which are not always exact repeats. Equal values may be shown once.

Experiments:
HIV-1 protease [1] = target: T1, HIV-1 protease (Human immunodeficiency virus type 1 group M subtype B, UniProt P04585); assay: biochemical; format: biochemical; conditions: for IC50: IC50 (HIV-1 protease inhibition)
[2] = system: VSV-G-pseudotyped HIV-1 (pHIV-1NL4-3); assay: microbe, parasite or virus in culture; format: cell-based; conditions: for inhibition at 10 µM: Human immunodeficiency virus 1, SUP-T1, read-out: Inhibition (%) (10 μM), effects on late-stage HIV-1; for EC50: Human immunodeficiency virus 1, read-out: Mean EC50 HIV-1NL4-3
[3] = system: DRV-resistant HIV-1 variant pHIV-1DRV^RS (V32I, L33F, I54M, I84V); assay: microbe, parasite or virus in culture; format: cell-based; conditions: for EC50: Human immunodeficiency virus 1, read-out: Mean EC50 HIVDRV^Rs
[4] = Cytotoxicity assay (CCK8 Assay Kit); conditions: human
[5] = system: influenza virus strain H3N2; parameters: method as in PMID 26077494; conditions: read-out: IC50 against influenza H3N2; cited from earlier work
[6] = system: influenza virus strain H1N1; parameters: method as in PMID 26077494; conditions: read-out: IC50 against influenza H1N1; cited from earlier work
[7] = system: influenza virus strain H5N1; conditions: read-out: IC50 against influenza H5N1; cited from earlier work
HIV-1 protease [8] = target: T1, HIV-1 protease; assay: biochemical; format: binding
HEK293T cells = assay: Cytotoxicity assay (CCK8 Assay Kit); conditions: HEK293T (293T) cells, CCK8, 24 h
[9] = HEK293T cells, CC50, HEK293T (293T) cells, CCK8, 24 h

Structure (SMILES)	IC50 (HIV-1 protease [1])	inhibition at 10 µM [2] [%]	CC50 at 24 h [4, 9] [nM]	other results
COc1ccc(S(=O)(=O)N(CC(C)C)C[C@@H](O)[C@H](Cc2ccccc2)NC(=O)c2cc(O)cc(O)c2)cc1 [15f]	0.0024 ± 0.0004 nM	100		Enhancement of enzymatic inhibitory activity compared with DRV (HIV-1 protease [1]): over 200 fold; Effectivity in single-round infection assay compared with DRV [2]: equipotent with DRV; EC50 [2]: 28.9 ± 9.21 nM; Fold Resistance, EC50 (mutant)/EC50 (WT) [3]: 1.57 fold; EC50 [3]: 45.5 ± 12.1 nM
COc1ccc(C(=O)N[C@@H](Cc2ccccc2)[C@H](O)CN(CC(C)C)S(=O)(=O)c2ccc(N)cc2)c(O)c1 [16c]	4.14 ± 1.38 nM	90 ± 6	> 100000	
COc1ccc(S(=O)(=O)N(CC(C)C)C[C@@H](O)[C@H](Cc2ccccc2)NC(=O)c2ccc(O)cc2O)cc1 [15e]	0.3 ± 0.08 nM	75 ± 6	78800	
CSc1ccc(S(=O)(=O)N(CC(C)C)C[C@@H](O)[C@H](Cc2ccccc2)NC(=O)c2ccc(O)cc2O)cc1 [17e]	0.4 ± 0.08 nM		> 100000	
COc1cc(O)c(C(=O)N[C@@H](Cc2ccccc2)[C@H](O)CN(CC(C)C)S(=O)(=O)c2ccc(SC)cc2)cc1OC [17i]	4.71 ± 0.18 nM		> 100000	
CC(C)CN(C[C@@H](O)[C@H](Cc1ccccc1)NC(=O)c1cc(O)c(O)c(O)c1)S(=O)(=O)c1ccc(N)cc1 [16g]	68 nM and 68.2 nM	55 ± 6	57600	
O=c1oc2cc(/C=C/c3ccc(O)c(O)c3)oc(=O)c2c2cc(O)c(O)cc12 [Phelligridin D]				IC50 [5]: 10300 nM; IC50 [6]: 8800 nM; IC50 [7]: 10900 nM
COc1ccc(S(=O)(=O)N(CC(C)C)C[C@@H](O)[C@H](Cc2ccccc2)NC(=O)c2cc(OC)c(OC)cc2O)cc1 [15i]	1.41 ± 0.43 nM		> 100000	
COc1ccc(S(=O)(=O)N(CC(C)C)C[C@@H](O)[C@H](Cc2ccccc2)NC(=O)c2ccc(Cl)cc2O)cc1 [15b]	7.82 ± 0.93 nM	96 ± 3	> 20000	Kd (HIV-1 protease [8]): 7100 nM; CC50 (HEK293T cells): 33900 nM; EC50 [2]: 1400 ± 23 nM; Fold Resistance, EC50 (mutant)/EC50 (WT) [3]: 1.31 fold; EC50 [3]: 1840 ± 39.6 nM
COc1ccc(S(=O)(=O)N(CC(C)C)C[C@@H](O)[C@H](Cc2ccccc2)NC(=O)c2cc(OC)c(O)c(OC)c2)cc1 [15h]	0.08 ± 0.03 nM	99 ± 2	84700	
CSc1ccc(S(=O)(=O)N(CC(C)C)C[C@@H](O)[C@H](Cc2ccccc2)NC(=O)c2ccccc2O)cc1 [17a]	3.97 ± 0.41 nM		> 100000	
CC(C)CN(C[C@@H](O)[C@H](Cc1ccccc1)NC(=O)O[C@H]1CO[C@H]2OCC[C@H]21)S(=O)(=O)c1ccc(N)cc1 [DRV, Darunavir, reference compound]		100		CC50 at 24 h [4]: > 100000 nM; EC50 [2]: 1.8 ± 0.73 nM; EC50 [3]: 136.8 ± 1.12 nM
CC(C)CN(C[C@@H](O)[C@H](Cc1ccccc1)NC(=O)c1ccc(O)cc1O)S(=O)(=O)c1ccc(N)cc1 [16e]	0.43 ± 0.08 nM	75 ± 8	> 100000	
CSc1ccc(S(=O)(=O)N(CC(C)C)C[C@@H](O)[C@H](Cc2ccccc2)NC(=O)c2cc(O)cc(O)c2)cc1 [17f]	0.0066 ± 0.0021 nM	100	> 100000	Effectivity in single-round infection assay compared with DRV [2]: equipotent with DRV
CSc1ccc(S(=O)(=O)N(CC(C)C)C[C@@H](O)[C@H](Cc2ccccc2)NC(=O)c2ccc(Cl)cc2O)cc1 [17b]	2.79 ± 0.44 nM		> 100000	
CC(C)CN(C[C@@H](O)[C@H](Cc1ccccc1)NC(=O)c1ccccc1O)S(=O)(=O)c1ccc(N)cc1 [16a]	0.54 ± 0.11 nM	100	> 100000	Effectivity in single-round infection assay compared with DRV [2]: equipotent with DRV
COc1cc(O)c(C(=O)N[C@@H](Cc2ccccc2)[C@H](O)CN(CC(C)C)S(=O)(=O)c2ccc(N)cc2)cc1OC [16i]	0.6 ± 0.18 nM		> 100000	
CC(C)CN(C[C@@H](O)[C@H](Cc1ccccc1)NC(=O)c1ccc(Cl)cc1O)S(=O)(=O)c1ccc(N)cc1 [16b]	0.31 ± 0.08 nM	98 ± 2	> 100000	
COc1cc(C(=O)N[C@@H](Cc2ccccc2)[C@H](O)CN(CC(C)C)S(=O)(=O)c2ccc(SC)cc2)cc(OC)c1O [17h]	0.32 ± 0.03 nM		> 100000	
COc1cc(C(=O)N[C@@H](Cc2ccccc2)[C@H](O)CN(CC(C)C)S(=O)(=O)c2ccc(N)cc2)cc(OC)c1O [16h]	0.04 ± 0.003 nM	99 ± 3	> 100000	
COc1ccc(S(=O)(=O)N(CC(C)C)C[C@@H](O)[C@H](Cc2ccccc2)NC(=O)c2cc(O)c(O)c(O)c2)cc1 [15g]	1.13 ± 0.23 nM	99 ± 1	> 100000	
COc1ccc(S(=O)(=O)N(CC(C)C)C[C@@H](O)[C@H](Cc2ccccc2)NC(=O)c2ccccc2O)cc1 [15a]	3.34 ± 0.28 nM	98 ± 2	> 100000	
COc1ccc(S(=O)(=O)N(CC(C)C)C[C@@H](O)[C@H](Cc2ccccc2)NC(=O)c2ccc(O)c(O)c2)cc1 [15d]	0.0059 ± 0.0007 nM	100	> 20000	CC50 (HEK293T cells): 38200 nM; Effectivity in single-round infection assay compared with DRV [2]: equipotent with DRV; EC50 [2]: 15.4 ± 2.17 nM; EC50 [3]: 402 ± 47.3 nM
COc1ccc(S(=O)(=O)N(CC(C)C)C[C@@H](O)[C@H](Cc2ccccc2)NC(=O)c2ccc(OC)cc2O)cc1 [15c]	4.68 ± 0.74 nM	92 ± 5	> 100000	
CSc1ccc(S(=O)(=O)N(CC(C)C)C[C@@H](O)[C@H](Cc2ccccc2)NC(=O)c2ccc(O)c(O)c2)cc1 [17d]	0.0076 ± 0.0029 nM	100	> 100000	Effectivity in single-round infection assay compared with DRV [2]: equipotent with DRV
CC(C)CN(C[C@@H](O)[C@H](Cc1ccccc1)NC(=O)c1cc(O)cc(O)c1)S(=O)(=O)c1ccc(N)cc1 [16f]	0.27 ± 0.03 nM	99 ± 2	> 100000	
CC(C)CN(C[C@@H](O)[C@H](Cc1ccccc1)NC(=O)c1ccc(O)c(O)c1)S(=O)(=O)c1ccc(N)cc1 [16d]	1.63 ± 0.33 nM	100	> 100000	Effectivity in single-round infection assay compared with DRV [2]: equipotent with DRV
COc1ccc(C(=O)N[C@@H](Cc2ccccc2)[C@H](O)CN(CC(C)C)S(=O)(=O)c2ccc(SC)cc2)c(O)c1 [17c]	8.21 ± 1.2 nM		> 100000	
